According to patent publication US20020115640A1, “Farnesyltransferase inhibitors” (priority 2000, published 2002):

Target: T1, farnesyltransferase (Rattus norvegicus, UniProt Q02293+Q04631)
T1 construct: The enzyme can be purified according to Cell, 62: 81-88 (1990), utilizing steps one, two, and three; from tissue; host or cells: rat brain
Experiment: Inhibition of farnesyltransferase (3H-farnesyldiphosphate / H-Ras filter assay)
Format: biochemical
Conditions: test compound at 10^−7 M; 3H-farnesyldiphosphate 0.6 μM, H-Ras 5.0 μM, 37° C., 30 minutes
Excerpt: The ability of the compounds of the present invention to inhibit farnesyltransferase can be measured according to the method described in J. Biol. Chem., 266: 14603 (1991) or J. Biol. Chem., 270:660-664 (1995). Procedures for determination of the inhibition of farnesylation of the oncogene protein Ras are described in J. Biol. Chem., 266:15575-15578 (1991) and U.S. Pat. No. 5,245,061. Inhibition of rat brain farnesyltransferase can also be measured in vitro using an Amersham Life Science commercial scintillation proximity assay kit and substituting a biotin-K Ras B fragment (0.1 μM final concentration) for the biotin-lamin substrate provided by Amersham. The enzyme can be purified according to Cell, 62: 81-88 (1990), utilizing steps one, two, and three. […] The percent inhibition of the farnesylation caused by the compounds of the present invention (at 10^−6 M) compared to an uninhibited control sample can be evaluated in the same Amersham test system.
The mixture was brought to 37° C., treated with enzyme, incubated for 30 minutes, treated with 1 M HCl/ethanol (1 mL) to stop the reaction, stirred for 15 minutes at room temperature, diluted with ethanol (2 mL), filtered through a 2.5 cm glass microfiber filter (Whatman) with ethanol rinses (4×2 mL). The glass transferred to a scintillation vial and treated with scintillation fluid (5 mL). The radioisotope retained on the glass fiber filter was counted and reflected the activity of the enzyme.

T1 sequence (Q02293 whole entry, one chain of several): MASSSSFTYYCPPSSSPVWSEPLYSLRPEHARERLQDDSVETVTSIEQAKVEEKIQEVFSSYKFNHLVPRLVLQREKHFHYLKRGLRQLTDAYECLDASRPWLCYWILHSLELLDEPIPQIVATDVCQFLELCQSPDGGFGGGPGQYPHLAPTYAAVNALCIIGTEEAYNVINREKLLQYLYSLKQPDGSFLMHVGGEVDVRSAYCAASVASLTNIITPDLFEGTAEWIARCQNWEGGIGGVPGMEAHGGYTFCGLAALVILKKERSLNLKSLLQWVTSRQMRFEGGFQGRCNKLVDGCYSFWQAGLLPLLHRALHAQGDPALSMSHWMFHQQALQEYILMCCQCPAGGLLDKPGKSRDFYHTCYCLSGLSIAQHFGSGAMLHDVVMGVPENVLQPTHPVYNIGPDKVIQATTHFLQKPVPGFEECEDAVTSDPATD

inhibition at 0.1 µM [%]	Molecule	% Inhibition at 10^−7 M [%]
> 83	Cn1cncc1C(OCc1cnc(C#N)cc1-c1cccc(Cl)c1)c1ccc(C#N)cc1 (stereo not drawn) [Example 40, 4-(3-chlorophenyl)-5-(((4-cyanophenyl)(1-methyl-1H-imidazol-5-yl)methoxy)methyl)-2-pyridinecarbonitrile]	–
100	Cn1cncc1C(OCc1c(-c2cccc(Cl)c2)cc(C#N)c(=O)n1C)c1ccc(C#N)c(F)c1 (stereo not drawn) [Example 52, 5-(3-chlorophenyl)-6-(((4-cyano-3-fluorophenyl)(1-methyl-1H-imidazol-5-yl)methoxy)methyl)-1-methyl-2-oxo-1,2-dihydro-3-pyridinecarbonitrile]	–
92	Cn1cncc1C(OCc1ccc(Cl)cc1-c1cccc2ccccc12)c1ccc(C#N)cc1 (stereo not drawn) [Example 12, 4-(((4-chloro-2-(1-naphthyl)benzyl)oxy)(1-methyl-1H-imidazol-5-yl)methyl)benzonitrile]	–
94	COc1cc(-c2cc(Cl)ccc2COC(c2ccc(C#N)cc2)c2cncn2C)cc(OC)c1OC (stereo not drawn) [Example 24, 4-(((5-chloro-3′,4′,5′-trimethoxy(1,1′-biphenyl)-2-yl)methoxy)(1-methyl-1H-imidazol-5-yl)methyl)benzonitrile]	–
80	Cn1cncc1C(OCc1cnc(F)cc1-c1cccc(Cl)c1)c1ccc(C#N)cc1 (stereo not drawn) [Example 38, 4-(((4-(3-chlorophenyl)-6-fluoro-3-pyridinyl)methoxy)(1-methyl-1H-imidazol-5-yl)methyl)benzonitrile]	–
82	CC(=O)c1ccccc1-c1cc(Cl)ccc1COC(c1ccc(C#N)cc1)c1cncn1C (stereo not drawn) [Example 15, 4-(((2′-acetyl-5-chloro(1,1′-biphenyl)-2-yl)methoxy)(1-methyl-1H-imidazol-5-yl)methyl)benzonitrile]	–
94	COc1ccc(OC)c(-c2cc(Cl)ccc2COC(c2ccc(C#N)cc2)c2cncn2C)c1 (stereo not drawn) [Example 20, 4-(((5-chloro-2′,5′-dimethoxy(1,1′-biphenyl)-2-yl)methoxy)(1-methyl-1H-imidazol-5-yl)methyl)benzonitrile]	–
100	Cc1ccc(S(=O)(=O)Nc2cc(C#N)ccc2COC(c2ccc(C#N)cc2)c2cncn2C)cc1 (stereo not drawn) [Example 47, N-(5-cyano-2-(((4-cyanophenyl)(1-methyl-1H-imidazol-5-yl)methoxy)methyl)phenyl)-4-methylbenzenesulfonamide]	–
87	Cn1cncc1C(OCc1ccc(Cl)cc1-c1cccc(Cl)c1Cl)c1ccc(C#N)cc1 (stereo not drawn) [Example 25, 4-((1-methyl-1H-imidazol-5-yl)((2′, 3′,5-trichloro(1,1′-biphenyl)-2-yl)methoxy)methyl)benzonitrile]	–
87	Cn1cncc1C(OCc1cn(C)c(=O)cc1-c1cccc(Cl)c1)c1ccc(C#N)cc1 (stereo not drawn) [Example 45, 4-(((4-(3-chlorophenyl)-1-methyl-6-oxo-1,6-dihydro-3-pyridinyl)methoxy)(1-methyl-1H-imidazol-5-yl)methyl)benzonitrile]	–
97	Cn1cncc1C(OCc1ccc(Cl)cc1-c1ccc(C(C)(C)C)cc1)c1ccc(C#N)cc1 (stereo not drawn) [Example 18, 4-(((4′-tert-butyl-5-chloro(1,1′-biphenyl)-2-yl)methoxy)(1-methyl-1H-imidazol-5-yl)methyl)benzonitrile]	–
84	Cn1cncc1C(OCc1ccc(Cl)cc1-c1cccc(N)c1)c1ccc(C#N)cc1 (stereo not drawn) [Example 13, 4-(((3′-amino-5-chloro(1,1′-biphenyl)-2-yl)methoxy)(1-methyl-1H-imidazol-5-yl)methyl)benzonitrile]	–

More lines, now with the values behind:

Molecule	inhibition at 0.1 µM [%]	% Inhibition at 10^−7 M [%]
Cn1cncc1C(O)(C#Cc1ccc(Cl)cc1-c1cccc(Cl)c1)c1ccc(C#N)cc1 (stereo not drawn) [Example 37, 4-(3-(3′,5-dichloro(1,1′-biphenyl)-2-yl)-1-hydroxy-1-(1-methyl-1H-imidazol-5-yl)-2-propynyl)benzonitrile]	> 96	–
4-(((5-chloro-4′-(trifluoromethyl)(1,1′-biphenyl)-2-yl)methoxy)(1-methyl-1H-imidazol-5-yl)methyl)benzonitrile [Example 26]	–	98
COc1cc(-c2cccc(Cl)c2)c(COC(c2ccc(C#N)cc2)c2cncn2C)cn1 (stereo not drawn) [Example 39, 4-(((4-(3-chlorophenyl)-6-methoxy-3-pyridinyl)methoxy)(1-methyl-1H-imidazol-5-yl)methyl)benzonitrile]	74	–
COc1ccc(-c2cc(Cl)ccc2COC(c2ccc(C#N)cc2)c2cncn2C)cc1OC (stereo not drawn) [Example 21, 4-(((5-chloro-3′,4′-dimethoxy(1,1′-biphenyl)-2-yl)methoxy)(1-methyl-1H-imidazol-5-yl)methyl)benzonitrile]	91	–
CCOc1cccc(-c2cc(Cl)ccc2COC(c2ccc(C#N)cc2)c2cncn2C)c1 (stereo not drawn) [Example 19, 4-(((5-chloro-3′-ethoxy(1,1′-biphenyl)-2-yl)methoxy)(1-methyl-1H-imidazol-5-yl)methyl)benzonitrile]	> 95	–
Cc1cccc(-c2cc(Cl)ccc2COC(c2ccc(C#N)cc2)c2cncn2C)c1 (stereo not drawn) [Example 7, 4-(((5-chloro-3′-methyl(1,1′-biphenyl)-2-yl)methoxy)(1-methyl-1H-imidazol-5-yl)methyl)benzonitrile]	> 85	–

Same assay, conditions: test compound at 10^−8 M; 3H-farnesyldiphosphate 0.6 μM, H-Ras 5.0 μM, 37° C., 30 minutes

inhibition at 0.01 µM [%]	% Inhibition at 10^−8 M [%]	Molecule
97	–	Cn1cncc1C(F)(COc1ccc(C#N)cc1-c1cccc(Cl)c1)c1ccc(C#N)cc1 (stereo not drawn) [Example 78, 3′-chloro-6-(2-(4-cyanophenyl)-2-fluoro-2-(1-methyl-1H-imidazol-5-yl)ethoxy)-1,1′-biphenyl-3-carbonitrile]
94	–	Cn1cncc1C(F)(COc1ccc(C#N)cc1-c1ccc(Cl)c(Cl)c1)c1ccc(C#N)cc1 (stereo not drawn) [Example 72, 3′,4′-dichloro-6-(2-(4-cyanophenyl)-2-fluoro-2-(1-methyl-1H-imidazol-5-yl)ethoxy)-1,1′-biphenyl-3-carbonitrile]
65	–	COc1cccc(-c2cc(C#N)ccc2N(C)CC(F)(c2ccc(C#N)cc2)c2cncn2C)c1 (stereo not drawn) [Example 85, 6-((2-(4-cyanophenyl)-2-fluoro-2-(1-methyl-1H-imidazol-5-yl)ethyl)(methyl)amino)-3′-methoxy-1,1′-biphenyl-3-carbonitrile]
–	97	Cn1cncc1C(O)(COc1ccc(C#N)cc1-c1ccc(OC(F)(F)F)cc1)c1ccc(C#N)cc1 (stereo not drawn) [Example 63, 6-(2-(4-cyanophenyl)-2-hydroxy-2-(1-methyl-1H-imidazol-5-yl)ethoxy)-4′-(trifluoromethoxy)-1,1′-biphenyl-3-carbonitrile]

Continued, molecule first:

Molecule	inhibition at 0.01 µM [%]	% Inhibition at 10^−8 M [%]
Cn1cncc1C(O)(COc1ccc(C#N)cc1-c1cccc2cccnc12)c1ccc(C#N)cc1 (stereo not drawn) [Example 59, 4-(2-(4-cyanophenyl)-2-hydroxy-2-(1-methyl-1H-imidazol-5-yl)ethoxy)-3-quinolin-8-ylbenzonitrile]	83	–
Cn1cncc1C(F)(COc1ccc(C#N)cc1-c1ccc2c(c1)OC(F)(F)O2)c1ccc(C#N)cc1 (stereo not drawn) [Example 80, 4-(2-(4-cyanophenyl)-2-fluoro-2-(1-methyl-1H-imidazol-5-yl)ethoxy)-3-(2,2-difluoro-1,3-benzodioxol-5-yl)benzonitrile]	90	–
Cn1cncc1C(F)(COc1ccc(C#N)cc1-c1ccc2c(c1)OCO2)c1ccc(C#N)cc1 (stereo not drawn) [Example 56, 3-(1,3-benzodioxol-5-yl)-4-(2-(4-cyanophenyl)-2-fluoro-2-(1-methyl-1H-imidazol-5-yl)ethoxy)benzonitrile]	97	–
Cn1cncc1C(O)(COc1ccc(C#N)cc1-c1ccc(Cl)c(Cl)c1)c1ccc(C#N)cc1 (stereo not drawn) [Example 71, 3′,4′-dichloro-6-(2-(4-cyanophenyl)-2-hydroxy-2-(1-methyl-1H-imidazol-5-yl)ethoxy)-1,1′-biphenyl-3-carbonitrile]	97	–
Cn1cncc1C(O)(COc1ccc(C#N)cc1-c1cc(Cl)cc(Cl)c1)c1ccc(C#N)cc1 (stereo not drawn) [Example 73, 3′,5′-dichloro-6-(2-(4-cyanophenyl)-2-hydroxy-2-(1-methyl-1H-imidazol-5-yl)ethoxy)-1,1′-biphenyl-3-carbonitrile]	96	–
Cn1cncc1C(O)(COc1ccc(C#N)cc1-c1cccc2ccccc12)c1ccc(C#N)cc1 (stereo not drawn) [Example 81, 4-(2-(4-cyanophenyl)-2-hydroxy-2-(1-methyl-1H-imidazol-5-yl)ethoxy)-3-(1-naphthyl)benzonitrile]	90	–
Cn1cncc1C(OCc1ccc(C#N)cc1C(=O)Nc1cccc(Cl)c1)c1ccc(C#N)cc1 (stereo not drawn) [Example 88, N-(3-chlorophenyl)-5-cyano-2-(((4-cyanophenyl)(1-methyl-1H-imidazol-5-yl)methoxy)methyl)benzamide]	90	–
N#Cc1ccc(C(O)(COc2ccc(C#N)cc2-c2ccc(OC(F)(F)F)cc2)c2cncs2)cc1 (stereo not drawn) [Example 82, 6-(2-(4-cyanophenyl)-2-hydroxy-2-(1,3-thiazol-5-yl)ethoxy)-4′-(trifluoromethoxy)-1,1′-biphenyl-3-carbonitrile]	15	–
